Experimental data reported in ChEMBL document CHEMBL1137060, “Inactivation of S-adenosylhomocysteine hydrolase with haloethyl and dihalocyclopropyl esters derived from homoadenosine-6'-carboxylic acid” (Bioorg Med Chem Lett, 2004).

How the values were obtained:
Adenosylhomocysteinase [1] = target: T1, Adenosylhomocysteinase (Homo sapiens, UniProt P23526); assay: Inhibition of human placental AdoHcy hydrolase
Target sequence in this assay (P23526 whole entry): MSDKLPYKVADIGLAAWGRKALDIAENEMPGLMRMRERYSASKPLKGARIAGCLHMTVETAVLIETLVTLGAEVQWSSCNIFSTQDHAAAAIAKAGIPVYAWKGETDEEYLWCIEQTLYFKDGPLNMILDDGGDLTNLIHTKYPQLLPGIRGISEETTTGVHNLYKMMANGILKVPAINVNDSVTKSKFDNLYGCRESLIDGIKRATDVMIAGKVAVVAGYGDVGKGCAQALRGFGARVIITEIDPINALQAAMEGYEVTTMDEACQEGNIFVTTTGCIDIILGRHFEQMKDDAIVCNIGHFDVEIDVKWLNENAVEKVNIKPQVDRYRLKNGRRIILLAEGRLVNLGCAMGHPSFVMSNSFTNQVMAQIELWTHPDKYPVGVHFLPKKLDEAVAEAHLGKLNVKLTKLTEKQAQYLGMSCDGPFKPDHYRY

Adenosylhomocysteinase [2] = target: T1, Adenosylhomocysteinase; assay: Inactivation of human placental AdoHcy hydrolase
Target sequence in this assay (P23526 2-432 limits assumed): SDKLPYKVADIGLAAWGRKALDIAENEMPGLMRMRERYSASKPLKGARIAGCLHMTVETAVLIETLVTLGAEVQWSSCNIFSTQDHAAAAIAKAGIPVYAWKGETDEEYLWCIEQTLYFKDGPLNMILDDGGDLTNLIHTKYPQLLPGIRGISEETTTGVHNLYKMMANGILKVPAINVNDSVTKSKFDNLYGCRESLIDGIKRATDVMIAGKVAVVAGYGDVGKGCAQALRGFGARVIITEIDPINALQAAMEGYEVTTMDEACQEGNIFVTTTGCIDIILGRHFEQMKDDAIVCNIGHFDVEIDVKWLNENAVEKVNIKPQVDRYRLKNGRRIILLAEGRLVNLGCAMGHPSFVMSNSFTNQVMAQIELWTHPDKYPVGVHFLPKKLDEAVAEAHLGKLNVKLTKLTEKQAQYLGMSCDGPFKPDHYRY

SMILES	Ki (Adenosylhomocysteinase [1])	K inact (Adenosylhomocysteinase [2])
Nc1ncnc2c1ncn2C1O[C@H](CC(=O)OCCCl)C(O)[C@H]1O (single isomer, unassigned)	302 µM	0.43 min⁻¹
Nc1ncnc2c1ncn2C1O[C@H](CC(=O)OCCF)C(O)[C@H]1O (single isomer, unassigned)	75 µM	0.19 min⁻¹
Nc1ncnc2c1ncn2C1O[C@H](CC(=O)OC2CC2(F)F)C(O)[C@H]1O (single isomer, unassigned)	17 µM	0.008 min⁻¹
Nc1ncnc2c1ncn2C1O[C@H](CC(=O)OC2CC2(Cl)Cl)C(O)[C@H]1O (single isomer, unassigned)	750 µM	0.09 min⁻¹
